Measured values published in PubChem BioAssay (NCI).
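Test compounds were applied to cells in 96-well plates for 48 hours at 5 doses. TGI: concentration producing complete growth inhibition.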

Legend:
Experiment in all cases: NCI tumour cell line growth inhibition, 48 h
[1] = test system: SNB-75 CNS
[2] = test system: SF-268 CNS
[3] = test system: OVCAR-3 ovarian
[4] = test system: MOLT-4 leukemia
[5] = test system: OVCAR-5 ovarian
[6] = test system: OVCAR-4 ovarian
[7] = test system: DMS 114 small cell lung
[8] = test system: KM12 colon
[9] = test system: SK-MEL-5 melanoma
[10] = test system: HCC-2998 colon
[11] = test system: A549 NSCLC
[12] = test system: HCT-116 colon
[13] = test system: MALME-3M melanoma
[14] = test system: U251 CNS
[15] = test system: LOX IMVI melanoma
[16] = test system: M14 melanoma
[17] = test system: NCI-H226 lung
[18] = test system: K-562 leukemia
[19] = test system: KM20L2 colon
[20] = test system: RXF 393 renal
[21] = test system: UACC-62 melanoma
[22] = test system: ACHN renal
[23] = test system: LXFL 529 NSCLC
[24] = test system: SW-620 colon
[25] = test system: SN12C renal
[26] = test system: HL-60(TB) leukemia
[27] = test system: SR leukemia
[28] = test system: IGROV1 ovarian
[29] = test system: HOP-62 NSCLC
[30] = test system: SK-OV-3 ovarian
[31] = test system: SK-MEL-2 melanoma
[32] = test system: NCI-H23 lung
[33] = test system: CAKI-1 renal
[34] = test system: UO-31 renal
[35] = test system: TK-10 renal
[36] = test system: SK-MEL-28 melanoma
[37] = test system: HOP-92 NSCLC
[38] = test system: 786-0 renal
[39] = test system: SNB-78 CNS
[40] = test system: HCT-15 colon
[41] = test system: SNB-19 CNS
[42] = test system: NCI/ADR-RES ovarian
[43] = test system: PC-3 prostate
[44] = test system: UACC-257 melanoma
[45] = test system: MDA-MB-435
[46] = test system: BT-549 breast
[47] = test system: A498 renal
[48] = test system: T-47D breast
[49] = test system: SF-295 CNS
[50] = test system: OVCAR-8 ovarian
[51] = test system: SF-539 CNS
[52] = test system: EKVX NSCLC
[53] = test system: MDA-MB-231 breast
[54] = test system: MDA-N
[55] = test system: CCRF-CEM leukemia
[56] = test system: RPMI-8226 leukemia
[57] = test system: DU-145 prostate
[58] = test system: HS 578T breast
[59] = test system: HT29 colon
[60] = test system: COLO 205 colon
[61] = test system: NCI-H460 lung
[62] = test system: NCI-H522 lung
[63] = test system: MCF7 breast
[64] = test system: DLD-1 colon
[65] = test system: M19-MEL melanoma
[66] = test system: DMS 273 small cell lung

SMILES: COC1CCCc2c(OC(C)=O)ccc(OC(C)=O)c21 (stereo unspecified)
- TGI [1]: > 100 µM
- TGI [2]: > 100 µM
- TGI [3]: > 100 µM
- TGI [4]: > 100 µM
- TGI [5]: > 100 µM
- TGI [6]: > 100 µM
- TGI [7]: > 100 µM
- TGI [8]: > 100 µM
- TGI [9]: > 100 µM
- TGI [10]: > 100 µM
- TGI [11]: > 100 µM
- TGI [12]: > 100 µM
- TGI [13]: > 100 µM
- TGI [14]: > 100 µM
- TGI [15]: > 100 µM
- TGI [16]: > 100 µM
- TGI [17]: > 100 µM
- TGI [18]: > 100 µM
- TGI [19]: > 100 µM
- TGI [20]: > 100 µM
- TGI [21]: > 100 µM
- TGI [22]: > 100 µM
- TGI [23]: > 100 µM
- TGI [24]: > 100 µM
- TGI [25]: > 100 µM
- TGI [26]: > 100 µM
- TGI [27]: > 100 µM
- TGI [28]: > 100 µM
- TGI [29]: > 100 µM
- TGI [30]: > 100 µM
- TGI [31]: > 100 µM
- TGI [32]: > 100 µM
- TGI [33]: > 100 µM
- TGI [34]: > 100 µM
- TGI [35]: > 100 µM
- TGI [36]: > 100 µM
- TGI [37]: 34.1 µM
- TGI [38]: > 100 µM
- TGI [39]: > 100 µM
- TGI [40]: > 100 µM
- TGI [41]: > 100 µM

SMILES: COc1cc2c(cc1OC)C(CCN)=NCC2
- TGI [42]: > 69 µM
- TGI [1]: 33 µM
- TGI [43]: 29.6 µM
- TGI [2]: 36.3 µM
- TGI [44]: 32.9 µM
- TGI [45]: 31.4 µM
- TGI [46]: 33.6 µM
- TGI [3]: 35.2 µM
- TGI [4]: 43 µM
- TGI [5]: > 57.8 µM
- TGI [47]: 62.8 µM
- TGI [6]: 47.4 µM
- TGI [8]: 40.2 µM
- TGI [48]: 31.1 µM
- TGI [9]: 35.6 µM
- TGI [11]: > 100 µM
- TGI [49]: > 100 µM
- TGI [50]: 33.1 µM
- TGI [12]: 33.7 µM
- TGI [13]: 33.1 µM
- TGI [14]: 30.8 µM
- TGI [51]: 16.6 µM
- TGI [15]: 36.7 µM
- TGI [16]: 32.8 µM
- TGI [52]: 59 µM
- TGI [53]: 30.8 µM
- TGI [54]: 30.5 µM
- TGI [17]: > 64.4 µM
- TGI [18]: 43.3 µM
- TGI [20]: 30.4 µM
- TGI [55]: 5.12 µM
- TGI [21]: 34.4 µM
- TGI [22]: 31.7 µM
- TGI [56]: 29.9 µM
- TGI [57]: 32.9 µM
- TGI [24]: 17.1 µM
- TGI [25]: 35.1 µM
- TGI [26]: 2.06 µM
- TGI [27]: 23.8 µM
- TGI [28]: 52 µM
- TGI [29]: > 57.4 µM
- TGI [58]: 59.9 µM
- TGI [30]: > 100 µM
- TGI [31]: 31.9 µM
- TGI [32]: 34.3 µM
- TGI [33]: 25.2 µM
- TGI [34]: 4.2 µM
- TGI [59]: 41.3 µM
- TGI [35]: 22.8 µM
- TGI [36]: 33.2 µM
- TGI [37]: 15.1 µM
- TGI [38]: 18.4 µM
- TGI [60]: 27.4 µM
- TGI [61]: > 100 µM
- TGI [40]: 38.9 µM
- TGI [62]: 10.3 µM
- TGI [41]: > 100 µM
- TGI [63]: 40.2 µM

SMILES: O=C(CC1(O)C(=O)Nc2ccccc21)c1ccc(Cl)c(Cl)c1 (stereo unspecified)
- TGI [1]: > 100 µM
- TGI [64]: > 100 µM
- TGI [2]: > 100 µM
- TGI [4]: > 100 µM
- TGI [5]: > 100 µM
- TGI [47]: > 100 µM
- TGI [6]: > 100 µM
- TGI [7]: > 100 µM
- TGI [65]: > 100 µM
- TGI [9]: > 100 µM
- TGI [10]: > 100 µM
- TGI [11]: > 100 µM
- TGI [49]: > 100 µM
- TGI [12]: > 100 µM
- TGI [14]: > 100 µM
- TGI [51]: > 100 µM
- TGI [15]: > 100 µM
- TGI [16]: > 100 µM
- TGI [52]: > 100 µM
- TGI [17]: > 100 µM
- TGI [18]: > 100 µM
- TGI [19]: > 100 µM
- TGI [20]: > 100 µM
- TGI [55]: > 100 µM
- TGI [21]: > 100 µM
- TGI [22]: > 100 µM
- TGI [23]: > 100 µM
- TGI [56]: > 100 µM
- TGI [24]: > 100 µM
- TGI [25]: > 100 µM
- TGI [26]: > 100 µM
- TGI [27]: > 100 µM
- TGI [28]: > 100 µM
- TGI [30]: > 100 µM
- TGI [31]: > 100 µM
- TGI [32]: > 100 µM
- TGI [33]: > 100 µM
- TGI [66]: > 100 µM
- TGI [34]: > 100 µM
- TGI [59]: > 100 µM
- TGI [36]: > 100 µM
- TGI [37]: > 100 µM
- TGI [38]: > 100 µM
- TGI [60]: > 100 µM
- TGI [39]: > 100 µM
- TGI [61]: > 100 µM
- TGI [40]: > 100 µM
- TGI [62]: > 100 µM
- TGI [41]: > 100 µM

SMILES: CCOC(=O)NC(Nc1ccc(F)cc1F)(C(F)(F)F)C(F)(F)F
- TGI [42]: > 100 µM
- TGI [1]: > 100 µM
- TGI [43]: > 100 µM
- TGI [2]: > 100 µM
- TGI [44]: > 100 µM
- TGI [45]: > 100 µM
- TGI [46]: > 100 µM
- TGI [3]: > 100 µM
- TGI [4]: > 100 µM
- TGI [5]: > 100 µM
- TGI [47]: > 100 µM
- TGI [8]: > 100 µM
- TGI [48]: > 100 µM
- TGI [9]: > 100 µM
- TGI [10]: > 100 µM
- TGI [11]: > 100 µM
- TGI [49]: > 100 µM
- TGI [50]: > 100 µM
- TGI [12]: > 100 µM
- TGI [13]: > 100 µM
- TGI [14]: > 100 µM
- TGI [51]: > 100 µM
- TGI [15]: > 100 µM
- TGI [16]: > 100 µM
- TGI [52]: > 100 µM
- TGI [53]: > 100 µM
- TGI [54]: > 100 µM
- TGI [17]: > 100 µM
- TGI [18]: > 100 µM
- TGI [20]: > 100 µM
- TGI [55]: > 100 µM
- TGI [21]: > 100 µM
- TGI [22]: > 100 µM
- TGI [56]: > 100 µM
- TGI [57]: > 100 µM
- TGI [24]: > 100 µM
- TGI [25]: > 100 µM
- TGI [26]: > 100 µM
- TGI [27]: > 100 µM
- TGI [28]: > 100 µM
- TGI [29]: > 100 µM
- TGI [58]: > 100 µM
- TGI [30]: > 100 µM
- TGI [31]: > 100 µM
- TGI [32]: > 100 µM
- TGI [33]: > 100 µM
- TGI [34]: > 100 µM
- TGI [59]: > 100 µM
- TGI [35]: > 100 µM
- TGI [36]: > 100 µM
- TGI [37]: > 100 µM
- TGI [38]: > 100 µM
- TGI [60]: > 100 µM
- TGI [61]: > 100 µM
- TGI [40]: > 100 µM
- TGI [62]: > 100 µM
- TGI [41]: > 100 µM
- TGI [63]: > 100 µM
